From article PMC9134086, “Inhibition of Dipeptidyl Peptidase-4 by Flavonoids: Structure–Activity Relationship, Kinetics and Interaction Mechanism” (Frontiers in Nutrition, 2022)

Molecular target: T1, DPP-4 (human recombinant) (Homo sapiens, UniProt P27487)
T1 construct: purchased Sigma Aldrich D3446
Assay: In vitro assay for DPP-4 inhibitory activity (fluorescence, Gly-Pro-AMC);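 note: fluorescence of released AMC (excitation 360 nm, emission 460 nm) followed kinetically over 30 min at 37 °C in Tris-HCl pH 8.0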
Format: biochemical
Details: DPP-4 inhibition, fluorescence method

T1 sequence (P27487 whole entry): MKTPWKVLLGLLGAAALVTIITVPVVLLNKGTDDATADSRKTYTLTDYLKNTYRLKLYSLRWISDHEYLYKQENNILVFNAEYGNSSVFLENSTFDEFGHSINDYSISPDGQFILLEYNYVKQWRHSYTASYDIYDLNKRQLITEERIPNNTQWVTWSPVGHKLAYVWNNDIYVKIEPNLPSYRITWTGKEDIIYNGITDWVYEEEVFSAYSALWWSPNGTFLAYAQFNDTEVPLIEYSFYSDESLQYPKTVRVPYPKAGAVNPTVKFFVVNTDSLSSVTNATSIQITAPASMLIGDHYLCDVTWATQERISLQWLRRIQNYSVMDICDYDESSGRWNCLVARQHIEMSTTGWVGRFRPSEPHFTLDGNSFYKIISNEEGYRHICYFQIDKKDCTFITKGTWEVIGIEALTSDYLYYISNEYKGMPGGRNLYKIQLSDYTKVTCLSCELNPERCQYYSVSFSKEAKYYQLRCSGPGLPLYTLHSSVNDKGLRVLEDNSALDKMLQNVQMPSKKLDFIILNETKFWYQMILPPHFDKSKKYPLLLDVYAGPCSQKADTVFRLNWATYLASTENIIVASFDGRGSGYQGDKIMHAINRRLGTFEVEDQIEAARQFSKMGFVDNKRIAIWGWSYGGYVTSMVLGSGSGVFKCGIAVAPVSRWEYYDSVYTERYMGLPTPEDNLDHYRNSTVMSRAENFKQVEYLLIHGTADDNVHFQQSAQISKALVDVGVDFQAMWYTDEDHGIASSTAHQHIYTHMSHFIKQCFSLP

Compound	IC50 [µM]
O=c1c(O)c(-c2cc(O)c(O)c(O)c2)oc2cc(O)cc(O)c12 [E19, Myricetin]	< 200

Same assay, conditions: flavonoid 200 μM; mean ± SD, three independent experiments

Compound	% Inhibition at 200μM [%]
COc1ccc(CCC(=O)c2c(O)cc(O[C@@H]3O[C@H](CO)[C@@H](O)[C@H](O)[C@H]3O[C@@H]3O[C@@H](C)[C@H](O)[C@@H](O)[C@H]3O)cc2O)cc1O [G2, Neosperidin dihydrochalcone]	17.15 ± 0.23
Myricitrin [E20]	39.8 ± 0.78

Same assay, conditions: flavonoid 200 μM; mean ± SD, three independent experiments; read-out: % Inhibition at 200μM

Compound	inhibition at 200 µM [%]
O=c1cc(-c2ccccc2)oc2cc(O)cc(O)c12 [A3, Chrysin]	26.1 ± 3.07
COc1ccc(-c2cc(=O)c3c(O)cc(O)cc3o2)cc1O [A4, Diosmetin]	22.2 ± 1.22
COc1ccc(-c2cc(=O)c3c(O)cc(O[C@@H]4O[C@H](CO[C@@H]5O[C@@H](C)[C@H](O)[C@@H](O)[C@H]5O)[C@@H](O)[C@H](O)[C@H]4O)cc3o2)cc1O [A5, Diosmin]	16.4 ± 1.73
O=c1cc(-c2ccc(O)c(O)c2)oc2cc(O)c([C@@H]3O[C@H](CO)[C@@H](O)[C@H](O)[C@H]3O)c(O)c12 [A6, Isoorientin]	42.63 ± 0.33
O=c1cc(-c2ccc(O)cc2)oc2cc(O)c([C@@H]3O[C@H](CO)[C@@H](O)[C@H](O)[C@H]3O)c(O)c12 [A7, Isovitexin]	42.4 ± 1.23
O=c1cc(-c2ccc(O)c(O)c2)oc2cc(O)cc(O)c12 [A8, Luteolin]	47.5 ± 0.89
O=C(O)C1OC(Oc2cc(O)c3c(=O)cc(-c4ccc(O)c(O)c4)oc3c2)C(O)C(O)C1O (centres unmarked) [A9, Luteolin 7-O-glucuronide]	35.65 ± 0.11
O=c1cc(-c2ccc(O)c(O)c2)oc2cc(O[C@@H]3O[C@H](CO)[C@@H](O)[C@H](O)[C@H]3O)cc(O)c12 [A10, Luteoloside]	45.6 ± 0.62
COc1ccc(-c2cc(=O)c3c(OC)c(OC)c(OC)c(OC)c3o2)cc1 [A13, Tangeretin]	14.2 ± 1.06
O=c1cc(-c2ccc(OC3OC(CO)C(O)C(O)C3O)cc2)oc2c(C3OC(CO)C(O)C(O)C3O)c(O)cc(O)c12 (centres unmarked) [A16, Vitexin 4'-O-glucoside]	45.9 ± 1.48
COc1ccc(-c2coc3cc(O)cc(O)c3c2=O)cc1 [B1, Biochanin A]	14.3 ± 1.48
COc1ccc(-c2coc3cc(O)ccc3c2=O)cc1O [B2, Calycosin]	43 ± 2.41
O=c1c(-c2ccc(O)cc2)coc2cc(O)ccc12 [B3, Daidzein]	19.2 ± 3.44
COc1ccc(-c2coc3cc(O)ccc3c2=O)cc1 [B4, Formononetin]	17.6 ± 0.19
O=c1c(-c2ccc(O)cc2)coc2cc(O)cc(O)c12 [B5, Genistein]	15.3 ± 0.21
COc1cc(O)c2c(=O)cc(-c3ccc(O)cc3)oc2c1 [B6, Genkwanin]	20.8 ± 1.92
C[C@@H]1O[C@@H](Oc2c(-c3ccc(O)c(O)c3)oc3cc(O)cc(O)c3c2=O)[C@H](O)[C@H](O)[C@H]1O [E26, Quercitrin]	47.65 ± 0.36

The remaining lines, values ahead:

inhibition at 200 µM [%]	Compound
30.9 ± 1.22	O=C1c2c(O)cc(O)cc2O[C@H](c2ccc(O)cc2O)[C@H]1O [C1, Dihydromorin]
20.6 ± 0.36	O=C1c2c(O)cc(O)cc2O[C@H](c2cc(O)c(O)c(O)c2)[C@H]1O [C2, Dihydromyricetin]
< 10	COc1ccc([C@@H]2CC(=O)c3c(O)cc(O)cc3O2)cc1O [C3, Hesperetin]
17.1 ± 0.94	O=C1C[C@@H](c2ccc(O)cc2)Oc2cc(O)ccc21 [C5, Liquiritigenin]
< 10	Oc1cc(O)c2c(c1)OC(c1ccc(O)c(O)c1)C(O)C2 (centres unmarked) [D1, Catechin]
< 10	Oc1cc(O)c2c(c1)O[C@H](c1ccc(O)c(O)c1)[C@H](O)C2 [D2, Epicatechin]
< 10	O=C(O[C@@H]1Cc2c(O)cc(O)cc2O[C@@H]1c1cc(O)c(O)c(O)c1)c1cc(O)c(O)c(O)c1 [D3, Epigallocatechin gallate]
27.1 ± 0.42	O=c1c(O[C@@H]2O[C@@H](CO)[C@H](O)[C@H]2O)c(-c2ccc(O)c(O)c2)oc2cc(O)cc(O)c12 [E1, Avicularin]
38.26 ± 0.36	O=c1c(O)c(-c2ccccc2)oc2cc(O)cc(O)c12 [E2, Galangin]
36.9 ± 1.13	O=c1c(O[C@@H]2O[C@H](CO)[C@@H](O)[C@H](O)[C@H]2O)c(-c2ccc(O)c(O)c2)oc2cc(O)cc(O)c12 [E5, Isoquercitrin]
38.6 ± 1.41	COc1cc(-c2oc3cc(O)cc(O)c3c(=O)c2OC2OC(CO)C(O)C(O)C2O)ccc1O (centres unmarked) [E7, Isorhamnetin 3-O-glucoside]
40.6 ± 0.42	COc1cc(-c2oc3cc(O)cc(O)c3c(=O)c2OC2OC(CO)C(O)C(O)C2OC2OC(C)C(O)C(O)C2O)ccc1O (centres unmarked) [E8, Isorhamnetin 3-O-neohesperidin]
15.7 ± 0.58	COc1ccc(-c2oc3cc(O)cc(O)c3c(=O)c2O)cc1 [E9, Kaempferide]
19.3 ± 0.47	C[C@@H]1O[C@@H](Oc2cc(O)c3c(=O)c(O[C@@H]4O[C@@H](C)[C@H](O)[C@@H](O)[C@H]4O)c(-c4ccc(O)cc4)oc3c2)[C@H](O)[C@H](O)[C@H]1O [E10, Kaempferitrin]
32.23 ± 0.19	O=c1c(O)c(-c2ccc(O)cc2)oc2cc(O)cc(O)c12 [E11, Kaempferol]
46.3 ± 1.57	O=c1c(OC2OC(CO)C(O)C(O)C2O)c(-c2ccc(O)cc2)oc2cc(O)cc(O)c12 (centres unmarked) [E13, Kaempferol 3-O-galactoside]
36.83 ± 0.01	CC1OC(OCC2OC(Oc3c(-c4ccc(O)cc4)oc4cc(O)cc(O)c4c3=O)C(O)C(O)C2O)C(O)C(O)C1O (centres unmarked) [E14, Kaempferol 3-O-rutinoside]
43.2 ± 1.48	O=c1c(OC2OC(CO)C(O)C(O)C2OC2OC(CO)C(O)C(O)C2O)c(-c2ccc(O)cc2)oc2cc(O)cc(O)c12 (centres unmarked) [E15, Kaempferol 3-O-sophoroside]
37.2 ± 0.64	O=c1c(O)c(-c2ccc(OC3OC(CO)C(O)C(O)C3O)cc2)oc2cc(O)cc(O)c12 (centres unmarked) [E16, Kaempferol 4'-O-glucoside]
42.8 ± 0.91	O=c1c(O)c(-c2ccc(O)cc2O)oc2cc(O)cc(O)c12 [E18, Morin]
45.6 ± 0.78	COc1c(-c2ccc(O)c(O)c2)oc2cc(O)cc(O)c2c1=O [E22, 3-O-Methylquercetin]
33.9 ± 1.07	O=c1c(OC2OC(CO)C(O)C(O)C2O)c(-c2ccc(O)c(O)c2)oc2cc(OC3OC(COC4OC(CO)C(O)C(O)C4O)C(O)C(O)C3O)cc(O)c12 (centres unmarked) [E24, Quercetin 3-O-glu-7-O-gentiobioside]
48.96 ± 0.12	CC1OC(Oc2cc(O)c3c(=O)c(O)c(-c4ccc(O)c(O)c4)oc3c2)C(O)C(O)C1O (centres unmarked) [E25, Quercetin 7-O-rhamnoside]
22.2 ± 0.63	COc1cc(O)c2c(=O)c(O)c(-c3ccc(O)c(O)c3)oc2c1 [E27, Rhamnetin]
42.7 ± 1.28	C[C@@H]1O[C@@H](OC[C@H]2O[C@@H](Oc3c(-c4ccc(O)c(O)c4)oc4cc(O)cc(O)c4c3=O)[C@H](O)[C@@H](O)[C@@H]2O)[C@H](O)[C@H](O)[C@H]1O [E28, Rutin]
18.8 ± 0.4	Oc1cc(O)c2cc(O)c(-c3ccc(O)c(O)c3)[o+]c2c1 [F1, Cyanidin]
13.7 ± 2.07	COc1cc(-c2[o+]c3cc(O)cc(OC4OC(CO)C(O)C(O)C4O)c3cc2OC2OC(CO)C(O)C(O)C2O)cc(OC)c1O (centres unmarked) [F4, Malvin]
< 10	Oc1ccc(-c2[o+]c3cc(O)cc(O)c3cc2O)cc1 [F5, Pelargonidin]
< 10	O=C(CCc1ccc(O)cc1)c1c(O)cc(O)cc1O[C@@H]1O[C@H](CO)[C@@H](O)[C@H](O)[C@H]1O [G4, Phlorizin]

Same assay, conditions: read-out: % Inhibition at 200μM

Compound	inhibition at 200 µM [%]
C[C@@H]1O[C@@H](OC[C@H]2O[C@@H](Oc3cc(O)c4c(c3)O[C@H](c3ccc(O)cc3)CC4=O)[C@H](O)[C@@H](O)[C@@H]2O)[C@H](O)[C@H](O)[C@H]1O [A11, Narirutin]	13.97 ± 0.13
O=c1cc(-c2ccc(O)c(O)c2)oc2c([C@@H]3O[C@H](CO)[C@@H](O)[C@H](O)[C@H]3O)c(O)cc(O)c12 [A12, Orientin]	38.6 ± 2.1
O=c1cc(-c2ccc(O)cc2)oc2c([C@@H]3O[C@H](CO)[C@@H](O)[C@H](O)[C@H]3O)c(O)cc(O)c12 [A14, Vitexin]	27 ± 1.35
COc1ccc(C2CC(=O)c3c(O)cc(OC4OC(COC5OC(C)C(O)C(O)C5O)C(O)C(O)C4O)cc3O2)cc1O (centres unmarked) [C4, Hesperidin]	< 10
O=c1c(O)c(-c2ccc(O)cc2)oc2c(O)c(O)cc(O)c12 [E3, Herbacetin]	25.7 ± 1.82
COc1cc(-c2oc3cc(O)cc(O)c3c(=O)c2O)ccc1O [E6, Isorhamnetin]	29.4 ± 1.52
O=c1c(O)c(-c2ccc(O)cc2)oc2cc(OC3OC(CO)C(O)C(O)C3O)cc(O)c12 (centres unmarked) [E17, Kaempferol 7-O-glucoside]	48.8 ± 1.07
COc1cc(-c2[o+]c3cc(O)cc(O)c3cc2OC2OC(CO)C(O)C(O)C2O)cc(OC)c1O (centres unmarked) [F3, Malvidin 3-O-glucoside]	15 ± 2.42
O=C(CCc1ccc(O)cc1)c1c(O)cc(O)cc1O [G3, Phloretin]	17.8 ± 1.21

Molecular target: T1, DPP-4 (human recombinant)
Assay: Fluorescence quenching experiments (Stern-Volmer, binding constant, thermodynamic parameters);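 note: intrinsic DPP-4 fluorescence emission scanned 290–500 nm, corrected for flavonoid background and inner-filter absorbance, compared without versus with flavonoid quencher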
Details: 310 K

Compound	ΔG (Gibbs free-energy change) [kJ/mol]
O=c1c(O)c(-c2cc(O)c(O)c(O)c2)oc2cc(O)cc(O)c12 [E19, Myricetin]	-24.88
